Assay results reported in patent US20050090402A1, “Use of defined copolymers as adjuvants and agents in the agrotechnical domain” (priority 2001, published 2005).

Tests used:
Assay type in all cases: in vivo
Details in all cases: bentazone 0.125 kg/ha, no adjuvant, 100 = complete destruction, 0 = no damage
[1] = system: soybeans (Glycine max; GLXMA); assay: Herbicidal efficacy of bentazone tank mixes, greenhouse post-emergence, soybeans
Description: (§1) The copolymers shown in Table 1 were applied by the tank mix method together with Basagran (480 g/l bentazone). The application rate per ha was 0.125 kg of bentazone and 2, 1.0 and 0.5 kg of a.i./ha copolymer or comparative surfactant Wettol LF 700 (alcohol alkoxylate). The herbicidal effect was assessed in a greenhouse experiment. The test plants used were soybeans (Glycine max; GLXMA), Chinese hemp (Abutilon theophrasti; ABUTH), white goosefoot (Chenopodium album; CHEAL) and ladysthumb (Polygonum persicaria; POLPE). These plants were either sown separately for each species or first grown separately as seedlings and transplanted into the experimental containers a few days before the treatment. The experimental containers used were plastic pots containing loamy sand and approximately 3.0% of humus as substrate. […] The application rate for the post-emergence treatment was 0.125 kg a.i./ha bentazone and 2.0, 1.0 or 0.5 kg a.i./ha copolymer or comparative surfactant.
(§2) The test period extended over 2 to 4 weeks. During this time, the plant species were kept specifically at night-time temperatures above 14° C. and day-time temperatures between 20 and 31° C., tended, and their response to the individual treatments was evaluated.
(§3) Evaluation was done using a scale from 0 to 100. […]

[2] = system: Chinese hemp (Abutilon theophrasti; ABUTH); assay: Herbicidal efficacy of bentazone tank mixes, greenhouse post-emergence, Chinese hemp
Description: as §1, §2, §3

[3] = system: white goosefoot (Chenopodium album; CHEAL); assay: Herbicidal efficacy of bentazone tank mixes, greenhouse post-emergence, white goosefoot
Description: as §1, §2, §3

[4] = system: ladysthumb (Polygonum persicaria; POLPE); assay: Herbicidal efficacy of bentazone tank mixes, greenhouse post-emergence, ladysthumb
Description: as §1, §2, §3

## CC(C)N1C(=O)c2ccccc2NS1(=O)=O [Bentazone, bentazone]
[1]
  herbicidal effect GLXMA (scale 0 to 100): 0
[2]
  herbicidal effect ABUTH (scale 0 to 100): 64
[3]
  herbicidal effect CHEAL (scale 0 to 100): 9
[4]
  herbicidal effect POLPE (scale 0 to 100): 86
